Reference: patent publication US20230293482A1, “CENTRAL NERVOUS SYSTEM POTENTIATING COMPOSITION” (priority 2020, published 2023)

What was measured:
Wistar male rats [1] = assay: Neovascularization, CD31 immunostaining of muscle; type: in vivo; conditions: 1 mg/kg of body weight for 14 days, compared with control group
Method: Wistar male rats were divided into 2 groups, and thereafter, a tetramer of 2-(3,4-dihydroxyphenyl)-3-(D-glucopyranooxyl)chromenylium-3,5,7-triol (1 mg/kg of body weight) was co-administered. to the laboratory animals for 14 days, Thereafter, the animals were subjected to dissection. A frozen section was prepared from the excised extensor digitorum longus muscle or soleus muscle, and CD31 serving as a neovascularization marker was then detected by applying an immunostaining method.

Wistar male rats [2] = assay: Blood pressure after repeated administration with/without N-acetylcysteine; type: in vivo
Method: Wistar male rats were divided into 4 groups, and thereafter, 2-(3,4-dihydroxyphenyl)-3-(D-glucopyranooxyl)chromenylium-3,5,7-triol (1 mg/kg of body weight) and/or N-acetylcysteine (100 mg/kg of body weight) were co-administered to the laboratory animals for 14 days. Thereafter, the blood pressure of the animals was measured over time, using a non-heated type sphygmomanometer.

Wistar male rats [3] = assay: Blood flow of the cremasteric arteriole, 50% effective dose; type: in vivo; conditions: 1, 10, 100, 1000 μg/kg of body weight intragastric, 60 minutes after administration, laser Doppler
Method: Cannula was inserted into the stomach of Wistar male rats under anesthesia, and the cremaster muscle was prepared, Not only a dimer, a trimer or a tetramer obtained by condensing (2R,3R)-2-(3,4-dihydroxyphenyl)-3,4-dihydro-2H-chromene-3,5,7-triol by a 4β→8 bond, 2-(3,4-dihydroxylphenyl)chromenylium-3,5,7-triol, or 2-(3,4,5-trihydroxyphenyl)chromenylium-3,5,7-triol, but also (2R,3R)-2-(3,4-dihydroxyphenyl)-3,4-dihydro-2H-chromene-3,5,7-triol, 2-(3,4-hydroxyphenyl-3,5,7-trihydroxy-4H-1-benzopyran-4-one (quercetin), (2R,3R)-5,7-dihydroxy-2-(3,4,5-trihydroxyphenyl)-3,4-dihydro-2H-chromen-3-yl] 3,4,5-trihydroxybenzoate (EGCG), (2S)-5-hydroxy-2-(3-hydroxy-4-methoxyphenyl)-7-[(2S,3R,4S,5S,6R)-3,4,5-trihydroxy-6-[[(2R,3R,4R,5R,6S)-3,4,5-trihydroxy-6-methylaxan-2-yl]oxymethyl]oxan-2-yl]oxy-2,3-dihydrochromen-4-one (hesperidin), 7-hydroxy-3(4-hydroxyphenyl)chromen-4-one (daidzein), (1E,6E)-1,7-bis(4-hydroxy-3-methoxyphenyl)hepta-1,6-diene-3,5-dione (curcumin), 5-[(E)-2-(4-hydroxyphenypenyl)ethenyl]-1,3-benzenediol (resveratrol), and (2R,3R)-2-(4-hydroxyphenyl)-3-(3,5-dihydroxyphenyl)-6-[(E)-4-hydroxystyryl]-2,3-dihydrobenzofuran-4-ol (Gnefin C), were administered to the rats at doses of 1, 10, 100, and 1000 μg/kg of body weight. A fluctuation in the blood flow of the cremasteric arteriole 60 minutes after the administration was measured using a laser Doppler blood-flowmeter. […] The 50% effective dose of the compound obtained by condensing (2R,3R)-2-(3,4-dihydroxyphenyl)-3,4-dihydro-2H-chromene-3,5,7-triol by a 4β→8 bond was in the range of 1 to 30 μg/kg of body weight, whereas the 50% effective dose of 2-(3,4-dihydroxyphenyl)chromenylium-3,5,7-triol or 2-(3,4,5-trihydroxylphenyl)chromenylium-3,5,7-triol was in the range of 50 to 100 μg/kg of body weight.

healthy volunteers = assay: Astringency sensory test, solutions held in oral cavity; type: in vivo, human; conditions: for astringency felt on oral ingestion: compared with other polyphenol compounds; for concentration at which astringency is exhibited in almost all cases: gradually diluted solutions held in oral cavity, ten healthy volunteers
Description: Ten healthy volunteers held in their oral cavity, solutions obtained by gradually diluting (2R,3R)-2-(3,4-dihydroxyphenyl)-3,4-dihydro-2H-chromene-3,5,7-triol, and a dimer, a trimer or a tetramer obtained by condensing the above compound by a 4β→8 bond, 2-(3,4-dihydroxyphenyl)chromenylium-3,5,7-triol or 2-(3,4,5-trihydroxylphenyl)chromenylium-3,5,7-triol, 2-(3,4-hydroxyphenyl-3,5,7-trihydroxy-4H-1-benzopyran-4-one (quercetin), (2R,3R)-5,7-dihydroxy-2-(3,4,5-trihydroxyphenyl)-3,4-dihydro-2H-chromen-3-yl] 3,4,5-trihydroxybenzoate (EGCG), (2S)-5-hydroxy-2-(3-hydroxy-4-methoxyphenyl)-7-[(2S,3R,4S,5S,6R)-3,4,5-trihydroxy-6-[[(2R,3R,4R,5R,6S)-3,4,5- trihydroxy-6-methyloxan-2-yl]oxymethyl]oxan-2-yl]oxy -2,3-dihydrochromen-4-one (hesperidin), 7-hydroxy-3-(4-hydroxyphenyl)chromen-4-one (daidzein), and (1E,6E)-1,7-bis(4-hydroxy-3-methoxyphenyl)hepta-1,6-diene-3,5-dione (curcumin), and the concentrations at which the volunteers felt astringency were then observed.

C57BL/6 male mice = assay: Open field locomotor activity / wakening after single administration; type: in vivo; conditions: 25 μg/kg of body weight, open field 60 minutes; for locomotor activity: compared with control group; for wakening state: control animals repeated sleeping and wakening

Structure (SMILES) | CD31 expression / neovascularization in extensor digitorum longus or soleus muscle (Wistar male rats [1]) | blood pressure change on co-administration with N-acetylcysteine (Wistar male rats [2]; 1 mg/kg of body weight + N-acetylcysteine 100 mg/kg for 14 days) | blood pressure (Wistar male rats [2]; 1 mg/kg of body weight for 14 days, Day 7 and Day 14) | fluctuation in the blood flow of the cremasteric arteriole (Wistar male rats [3]) | astringency felt on oral ingestion (healthy volunteers) | concentration at which astringency is exhibited in almost all cases (healthy volunteers) [µg/mL] | locomotor activity (C57BL/6 male mice) | wakening state (C57BL/6 male mice)
OC[C@H]1OC(Oc2cc3c(O)cc(O)cc3[o+]c2-c2ccc(O)c(O)c2)[C@H](O)[C@@H](O)[C@@H]1O (stereo partly drawn) [2-(3,4-dihydroxyphenyl)-3-(D-glucopyranooxyl)chromenylium-3,5,7-triol] | a significant expression of CD31 was observed | disappeared | significantly decreased | – | – | – | – | –
Oc1cc(O)c2cc(O)c(-c3ccc(O)c(O)c3)[o+]c2c1 [2-(3,4-dihydroxyphenyl)chromenylium-3,5,7-triol] | – | – | – | dose-dependent blood flow-increasing action | strong astringency | 10 | significantly increased | the animals were in a wakening state
Oc1cc(O)c2cc(O)c(-c3cc(O)c(O)c(O)c3)[o+]c2c1 [2-(3,4,5-trihydroxylphenyl)chromenylium-3,5,7-triol] | – | – | – | dose-dependent blood flow-increasing action | strong astringency | 10 | – | –
Oc1cc(O)c2c(c1)O[C@H](c1ccc(O)c(O)c1)[C@H](O)[C@H]2c1c(O)cc(O)c2c1O[C@H](c1ccc(O)c(O)c1)[C@H](O)[C@H]2c1c(O)cc(O)c2c1O[C@H](c1ccc(O)c(O)c1)[C@H](O)C2 [trimer] | – | – | – | dose-dependent blood flow-increasing action | – | 10 | significantly increased | the animals were in a wakening state
Oc1cc(O)c2c(c1)O[C@H](c1ccc(O)c(O)c1)[C@H](O)[C@H]2c1c(O)cc(O)c2c1O[C@H](c1ccc(O)c(O)c1)[C@H](O)C2 [dimer] | – | – | – | dose-dependent blood flow-increasing action | – | 10 | significantly increased | the animals were in a wakening state
